Experimental data published in patent US20070255356A1, “PHOTODI[…] DEVICES AND METHODS” (Ondine International, Ltd., priority 2006, published 2007).

How the values were obtained:
otitis externa [1] = experiment: photodisinfection of otitis externa treatment site (Examples V to VII); format: in vivo
Experimental: A photosensitizing composition comprising of methylene blue at a concentration of about 0.1 wt % is applied to the otitis externa treatment site. Light at a wavelength range from about 650 nm to about 680 nm is applied to the photosensitizing composition located within the otitis externa treatment site for a period from about 6 minutes to about 10 minutes using a laser with power at about 80 mW. The otitis externa was ameliorated.
A photosensitizing composition comprising of methylene blue at a concentration range of from about 0.001 wt % to about 0.1 wt % is applied to the otitis externa treatment site. Light at a wavelength range from about 650 nm to about 680 nm is applied to the photosensitizing composition located within the treatment site for a period from about 1 minute to about 20 minutes using a laser with power at a range from about 50 mW to about 300 mW. The otitis externa was ameliorated.
A photosensitizing composition comprising of toluidine blue at a concentration range of from about 0.001% wt % to about 0.1 wt % is applied to the otitis externa treatment site. Light at a wavelength range from about 620 nm to about 650 nm is applied to the photosensitizing composition located within the otitis externa treatment site for a period from about 1 minute to about 20 minutes using a laser with power at a range from about 50 mW to about 300 mW. The otitis externa was ameliorated.
For Examples V to VII, it was shown that there is a general inverse relationship between (1) the photosensitizer concentration and (2) the photodisinfection treatment time and/or the amount of power required for the light source. For example, higher concentration of photosensitizer requires less treatment time and/or lower light source power. Conversely, lower concentration of photosensitizer requires longer treatment time and/or higher light source power. Also, less treatment time requires higher concentration of photosensitizer and/or higher light source power.

E. fecalis = experiment: photodisinfection of E. fecalis biofilms in vitro (Periowave laser); format: cell-based, Enterococcus fecalis; settings: methylene blue and a low power laser
From the text: (§1) Photodisinfection treatments using methods contemplated by the present invention have been tested against MRSA, Escherichia coli (E. coli), and Enterococcus fecalis (E. fecalis) in vitro and reached high levels of disinfection in within seconds to one minute. Photosensitizing composition comprising of methylene blue at various concentrations ranging from about 0.005 wt % to 0.1 wt % was applied to biofilms of MRSA, E. coli and E. fecalis for about ten seconds. These biofilms were then illuminated by a laser light system at a wavelength of about 665 nm to about 675 nm for a period from about 0 seconds to about 60 seconds (e.g., accumulated energy level of about 0 J/cm^2 to about 9 J/cm^2). The laser light system used was the Periowave™ system which includes a low-intensity laser with power at about 240 mW and the optical probe described in PCT Patent Publication No. WO2006115761.

MRSA [2] = experiment: SEM evaluation of MRSA biofilms after photodisinfection; format: cell-based, Methicillin-resistant Staphylococcus aureus; settings: about 0.1 wt % methylene blue, about 10 seconds contact, 665-675 nm, about 30 seconds
Experimental: (§2) Biofilms heavily colonized with one to four layers of MRSA organisms were contacted with a photosensitizing composition comprising methylene blue at a concentration of about 0.1 wt % for about 10 seconds and then illuminated at a wavelength of about 665 nm to about 675 nm for a period from about 30 seconds using the Periowave™ laser. Thereafter, these biofilms and the controlled MRSA biofilms (e.g., no photodisinfection treatment) were incubated overnight in 0.9 wt % saline and then fixed in 10 wt % Formalin for scanning electron microscope (SEM) evaluation.

E. coli [3] = experiment: SEM evaluation of E. coli biofilms after photodisinfection; format: cell-based, Escherichia coli; settings: about 0.1 wt % methylene blue, about 10 seconds contact, 665-675 nm, about 30 seconds
Experimental: as §2, with “to three” for “to four”, “of Escherichia coli (E. coli)” for “of MRSA”, “controlled E. coli” for “controlled MRSA”, “incubated for three hours” for “incubated overnight”, “in 0.9%” for “in 0.9 wt %”, “in 10%” for “in 10 wt %”

otitis externa [4] = experiment: study on patients suffering otitis externa (photodisinfection, Periowave laser); format: in vivo, human; settings: about 0.01 wt % methylene blue by cotton swab, 665-675 nm, about 3 to 5 minutes (3-5 one minute cycles); many patients
Experimental: A study was conducted on patients suffering otitis externa. During the study, a photosensitizing composition comprising of methylene blue at a concentration of about 0.01 wt % was applied using a cotton swab to the treatment site as shown in FIG. 37. Thereafter and referring to FIGS. 38-39, light at a wavelength range from about 665 nm to about 675 nm was applied to the photosensitizing composition located within the treatment site 64 for a period from about 3 minutes to about 5 minutes (3-5 repetitive one minute cycles) using the Periowave™ laser light system.

MRSA [5] = experiment: photodisinfection of MRSA biofilms in vitro (Periowave laser); format: cell-based, Methicillin-resistant Staphylococcus aureus
From the text: as §1

E. coli [6] = experiment: photodisinfection of E. coli biofilms in vitro (Periowave laser); format: cell-based, Escherichia coli
From the text: as §1

[7] = at least 0.02 wt % methylene blue, about ten seconds contact, about 665-675 nm laser about 240 mW for at least 15 seconds (at least 2.25 J/cm^2)
[8] = methylene blue and a low power laser

For `Cc1cc2nc3ccc(N(C)C)cc3[s+]c2cc1N.[Cl-]` [toluidine blue], the “outcome of otitis externa” value (otitis externa [1]; Example VII: about 0.001 to 0.1 wt %, 620-650 nm, about 1 to 20 minutes, laser about 50 to 300 mW) was “ameliorated”.

With `CN(C)c1ccc2nc3ccc(=[N+](C)C)cc-3sc2c1` [methylene blue] the “elimination of E. Fecalis by photodisinfection” value (E. fecalis) was “effectively eliminated”, the “reduction of MRSA in SEM photograph (FIG. 34 vs FIG. 33)” value (MRSA [2]) was “substantial reduction of MRSA” and the “reduction of E. coli in SEM photograph (FIG. 36 vs FIG. 35)” value (E. coli [3]) was “substantial reduction of E. coli”. The “outcome of otitis externa” value (otitis externa [1]; Example V: about 0.1 wt %, 650-680 nm, about 6 to 10 minutes, laser about 80 mW) was “ameliorated”, the “outcome of otitis externa” value (otitis externa [1]; Example VI: about 0.001 to 0.1 wt %, 650-680 nm, about 1 to 20 minutes, laser about 50 to 300 mW) was “ameliorated” and the “outcome of otitis externa” value (otitis externa [4]) was “ameliorated”. For the same compound, the “reduction of MRSA” value (MRSA [5]; [7]) was “at least three”, the “elimination of MRSA by photodisinfection” value (MRSA [5]; [8]) was “effectively eliminated” and the “reduction of E. coli” value (E. coli [6]; [7]) was “at least three”. The “elimination of E. coli by photodisinfection” value (E. coli [6]; [8]) was “effectively eliminated”.
